Data on 2 compounds can be found in patent US4971967A, “Quinolinecarboxylic acid derivatives, antibacterial compositions and use” (Kanebo Ltd, priority 1989, dated 1990).

Series [1] can be described thus: Acute toxicity (Experiment 5). The following applies: mouse, in vivo, po, 2000 mg/kg. As for the experimental part:
(§1) The compound (A) or (J) of the present invention was suspended in 1% (w/v) aqueous gum arabic to prepare a suspension in concentration of 100 mg/ml. The suspension was orally administered to ddY male mice (5 weeks age, weighing 20 to 25 g, 5 mice in each group), which had been fasted for 18 hours, at a rate of 2000 mg/kg body weight of the compound (A) or (J).

Series [2] concerns Salmonella typhimurium IID 971. As to the kind of experiment: Antibacterial activity (MIC), Salmonella typhimurium IID 971. The format is cell-based. As to conditions: Salmonella enterica; Salmonella typhimurium IID 971, Gram -; read-out: Minimum inhibitory concentration (MIC). An outline of the steps:
(§2)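 Test compounds were dissolved at 5000 μg/ml in 0.1 N aqueous NaOH or in sterile distilled water, then diluted with sterile water to a 1000 μg/ml standard solution. MICs were determined by the Japan Society of Chemotherapy standard method.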

Series [3] relates to Klebsiella pneumoniae PCI-602. As to the kind of experiment: Antibacterial activity (MIC), Klebsiella pneumoniae PCI-602. The format is cell-based. The following applies: PCI602; Klebsiella pneumoniae PCI-602, Gram -; read-out: Minimum inhibitory concentration (MIC). An outline of the steps: as §2
In another series the test system is Escherichia coli KC-14. Put plainly: Antibacterial activity (MIC), E. coli KC-14. The following applies: KC14; Escherichia coli KC-14, Gram -; read-out: Minimum inhibitory concentration (MIC). The class given is cell-based. An outline of the steps:
as §2

The subject of series [4] is Proteus mirabilis IFO 3849. As to the kind of experiment: Antibacterial activity (MIC), Proteus mirabilis IFO 3849. The format is cell-based. The following applies: IFO3849; Proteus mirabilis IFO 3849, Gram -; read-out: Minimum inhibitory concentration (MIC). An outline of the steps: as §2
Series [5] can be described thus: Low toxicity (Experiments 5 and 6). The class given is in vivo, ddY male mice. The following applies: result in words. As for the experimental part: as §1
The compound (O) or (P) of the present invention was suspended in sterilized distilled water to prepare a suspension. The suspension was orally adminstered to ddY male mice (5 weeks age, weighing 20 to 25 g, 5 mice in each group), which had been fasted for 18 hours.

The test system of series [6] is Serratia marcescens IAM 1184. As to the kind of experiment: Antibacterial activity (MIC), Serratia marcescens IAM 1184. As to conditions: Serratia marcescens, IAM1184, Serratia marcescens IAM 1184, Gram -; read-out: Minimum inhibitory concentration (MIC). The format is cell-based. An outline of the steps: as §2
Series [7] relates to Micrococcus luteus ATCC 9341. As to the kind of experiment: Antibacterial activity (MIC), Micrococcus luteus ATCC 9341. The format is cell-based. As to conditions: ATCC9341; Micrococcus luteus ATCC 9341, Gram +; read-out: Minimum inhibitory concentration (MIC). An outline of the steps: as §2
Series [8] has as its system Acinetobacter calcoaceticus AC 54. As to the kind of experiment: Antibacterial activity (MIC), Acinetobacter calcoaceticus AC 54. As to conditions: Acinetobacter calcoaceticus, AC54, read-out: Minimum inhibitory concentration (MIC), Acinetobacter calcoaceticus AC 54, Gram -. The format is cell-based. An outline of the steps: as §2

≈ marks a conversion by molar mass, not a printed value.

`CN1CCN(c2c(F)cc3c(=O)c(C(=O)O)c4scc5n4c3c2N(C)C5)CC1` [Compound (A), 9,1-(Methylimino)methano-7-fluoro-8-(4-methyl-1-piperazinyl)-5-oxo-5H-thiazolo[3,2-a]quinoline-4-carboxylic acid]: in series [1], the death of mice entry is “no death of mice was observed”. For the same compound, the MIC in series [2] was found to be 0.05 µg/mL (≈ 0.124 µM); in [3] it was 0.006 µg/mL (≈ 0.0149 µM); in the series on Escherichia coli KC-14, 0.05 µg/mL (≈ 0.124 µM); in series [4], 0.2 µg/mL (≈ 0.497 µM); in [6] it was 0.2 µg/mL (≈ 0.497 µM); in [7], 0.39 µg/mL (≈ 0.969 µM). For the same compound, the MIC in series [8] was 0.025 µg/mL (≈ 0.0621 µM). In series [5], the toxicity entry was “low toxicity”.

On to `CCN1CCN(c2c(F)cc3c(=O)c(C(=O)O)c4scc5n4c3c2N(C)C5)CC1` [Compound (J), 9,1-(Methylimino)methano-7-fluoro-8-(4-ethyl-1-piperazinyl)-5-oxo-5H-thiazolo[3,2-a]quinoline-4-carboxylic acid], for which, in series [1], the death of mice entry is “no death of mice was observed”. Also, the MIC in series [3] was 0.006 µg/mL (≈ 0.0144 µM); in series [4], 0.39 µg/mL (≈ 0.936 µM); in series [6] it was 0.39 µg/mL (≈ 0.936 µM); in series [7], 0.39 µg/mL (≈ 0.936 µM). The toxicity entry in series [5] is “low toxicity”.
